What was measured:
[1] = tested on: human endothelial cells of the umbilical vein; test: Proliferation of human umbilical vein endothelial cells, with or without FGFa; type: cell-based
Method: At confluence (5-7 days), the cells are detached by an EDTA-trypsin mixture.
48 hours latter, growth factor is added again. After 4 days of culture, the cells are detached by the EDTA-trypsin mixture and the cells are counted by means of a cell counter (Coulter Counter ® Coultronics). Each experimental curve (FIG. 14A-D) represents a typical experiment conducted in triplicate. Each experiment is repeated 2 to 3 times.

[2] = tested on: LE II cells (endothelial cells of mouse lung); test: Tritiated thymidine incorporation in quiescent LE II cells, with or without anionic FGF; type: cell-based
Method: LE II cells (endothelial cells of mouse lung) are cultivated on plates containing 24 wells in the presence of 10% foetal calf serum until 3/4 of confluence is attained.
The cells are then maintained for 48 hours in only 0.2% serum and rendered quiescent.
The growth medium is then supplemented with either fibroblast growth factor (FGF) or the oligosaccharide fragments to be tested or both products simultaneously (FGF+product to be tested).
The culture is maintained for a further 24 hours and tritiated thymidine is added 4 hours before the end of the experiment.
The radioactivity incorporated is then counted; each measurement is made in triplicate.

| Molecule | ED 50 of FGFa (50% of maximal proliferation) ([1]; FGFa in the absence of oligosaccharides, 10% FCS) | maximal increase of the number of cells ([1]; FGFa without oligosaccharides, versus 10% FCS alone) | dose giving plateau of stimulation ([2]; anionic FGF alone (FIG. 10)) | plateau of thymidine incorporation after stimulation ([2]; anionic FGF alone, 5 ng/ml (FIG. 10)) |
| --- | --- | --- | --- | --- |
| FGFa: acidic FGF (FGFa) | about 7 ng/ml | 230% | – | – |
| anionic FGF: anionic FGF prepared from beef brain according to Lobb and Fett (protein, UniProt P03968 16-155, looked up) Fibroblast growth factor 1: FNLPLGNYKKPKLLYCSNGGYFLRILPDGTVDGTKDRSDQHIQLQLCAESIGEVYIKSTETGQFLAMDTDGLLYGSQTPNEECLFLERLEENHYNTYISKKHAEKHWFVGLKKNGRSKLGPRTHFGQKAILFLPLPVSSD | – | – | 5 ng/mL | 126,000 cpm |

From patent US5034520A, “Process for recovering heparinic oligosaccharides with an affinity for cell growth factors” (Sanofi, priority 1986, dated 1991)
